The values below come from patent US20100016288A1 (priority 2008, published 2010).

The test concerns the target T1, alpha7 nicotinic acetylcholine receptor (Rattus norvegicus, UniProt Q05941).
T1 construct: expressed in transfected cells
The test is classed as cell-based. To be noted: agonist concentration-response 0.001 to 30 microM; rat alpha7 nAChR in GH4C1 cells; assay validation.

T1 sequence (Q05941 23-502): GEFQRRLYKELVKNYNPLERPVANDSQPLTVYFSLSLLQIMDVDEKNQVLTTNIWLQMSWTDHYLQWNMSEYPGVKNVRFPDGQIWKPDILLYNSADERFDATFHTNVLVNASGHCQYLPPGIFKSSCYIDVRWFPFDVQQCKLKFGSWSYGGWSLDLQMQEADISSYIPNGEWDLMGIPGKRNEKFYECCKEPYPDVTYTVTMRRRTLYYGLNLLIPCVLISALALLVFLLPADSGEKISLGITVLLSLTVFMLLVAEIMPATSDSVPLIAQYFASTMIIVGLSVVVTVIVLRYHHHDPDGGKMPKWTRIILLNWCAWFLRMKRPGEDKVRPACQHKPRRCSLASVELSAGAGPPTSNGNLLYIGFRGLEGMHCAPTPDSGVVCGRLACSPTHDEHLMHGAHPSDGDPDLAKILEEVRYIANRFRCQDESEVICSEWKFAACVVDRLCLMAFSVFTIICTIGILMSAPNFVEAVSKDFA
Description: Rat GH4C1 cells were then transfected with the rat receptor, cloned and analyzed for functional alpha7 nicotinic receptor expression employing a FLIPR assay to measure changes in intracellular calcium concentrations. […] Three cell lines were then expanded and one characterised pharmacologically (see Table 2 below) prior to its subsequent use for compound screening.
The FLIPR system allows the measurements of real time Ca^2+-concentration changes in living cells using a Ca^2+ sensitive fluorescence dye (such as Fluo4). This instrument enables the screening for agonists and antagonists for alpha 7 nAChR channels stably expressed in GH4C1 cells.
GH4C1 cells stably transfected with rat-alphα7-nAChR (see above) were used. These cells are poorly adherent and therefore pretreatment of flasks and plates with poly-D-lysine was carried out. Cells are grown in 150 cm^2 T-flasks, filled with 30 ml of medium at 37° C. and 5% CO2.
EC50 and IC50 values were calculated using the IDBS XLfit4.1 software package employing a sigmoidal concentration-response (variable slope) equation:
The compounds were tested using the functional FLIPR primary screening assay employing the stable recombinant GH4C1 cell line expressing the alpha7 nAChR. Hits identified were validated further by generation of concentration-response curves.

With `C[N+]1(C)CCN(c2ccccc2)CC1` [DMPP], the EC50 (as a rule, the concentration that produces a half-maximal response) was 980 ± 470 nM.
